Results on 10 compounds are retold here after US8158317B2, “Azo dye compound, coloring composition, ink sheet for thermal transfer recording, thermal transfer recording method, color toner, ink for inkjet, and color filter” (FUJIFILM Corporation, priority 2006, dated 2012).

What all share (assay type): physicochemical
Data set [1] in a line: Light stability (lightfastness) of thermal transfer images under Xe light. Conditions: Xe light (17000 lux) for 7 days; density retentiveness ratio to original reflection density 1.0; three ranks. How it is done:
Next, the recorded thermal transfer image-receiving materials were exposed to an Xe light (17000 lux) for 7 days and tested for the light stability (lightfastness) of the images. After the exposure, the status A reflection density of the part originally having a status A reflection density of 1.0 was measured, and the image stability was indicated by the density retentiveness ratio (percentage) to the original reflection density 1.0 before exposure. The samples were evaluated in three ranks, A (from 80% to less than 100%), B (from 60% to less than 80%), and C (less than 60%).

The nature of data set [2]: Maximum absorption wavelength of the absorption spectrum in ethyl acetate solution. Conditions: for Maximum Absorption Wavelength: concentration 1×10^−6 mol/L, optical path length 10 mm; for λmax: stated in the production example. The text has this:
The maximum absorption wavelength of the absorption spectrum in an ethyl acetate solution (concentration 1×10^−6 mol/L; optical path length, 10 mm) of these compounds is shown in Table 1 below.

Data set [3] can be described thus: Dye solubility when preparing the coating composition for dye-donating layer formation (ink sheet). Further details: key: A (soluble easily); B (soluble); C (soluble but hardly). As to conditions: dye in coating composition with polyvinylbutyral resin, methyl ethyl ketone/toluene (1/1); three ranks. The text has this: A polyester film (Lumirror, Toray's trade name) having a thickness of 6.0 μm and coated with a thermoplastic acrylic resin (thickness, 1 μm) for heat-resistant lubrication on the back thereof was used as a support. The following coating composition for dye-donating layer formation was applied onto the surface of the support film, in a mode of wire bar coating, thereby forming a coating layer having a dry thickness of 1 μm thereon to give an ink sheet 1.
(Coating Composition for Dye-donating Layer Formation)
Next, ink sheets 2 to 5 of the invention and comparative ink sheets 6 to 8 were formed in the same manner as that for the ink sheet 1 but using the dye shown in Table 2 below in place of Compound (1). In this process, the dye solubility was evaluated in three ranks; A (soluble easily), B (soluble), C (soluble but hardly).

In the case of `CN(C)C(=O)n1c(/N=N/c2c(C(C)(C)C)nn(C)c2N)nc(C#N)c1C#N` [(2)], in data set [1], the Lightfastness result was “A (A (from 80% to less than 100%))”. Further, in data set [2], the “Maximum Absorption Wavelength” value amounted to 439 nm. For the same compound, the Solubility result in data set [3] is “A”.

Consider `CC(=O)n1c(/N=N/c2c(C(C)(C)C)nn(C)c2N)nc(C#N)c1C#N` [(3)], for which the Lightfastness result in data set [1] is recorded as “A (A (from 80% to less than 100%))”. Moreover, the “Maximum Absorption Wavelength” value in data set [2] is on record as 452 nm. Moreover, the Solubility entry in data set [3] is “A”.

For the compound `Cn1nc(C(C)(C)C)c(/N=N/c2nc(C#N)c(C#N)n2C(=O)c2ccccc2)c1N` [(4)], the Lightfastness entry in data set [1] is on record as “A (A (from 80% to less than 100%))”. Further, the “Maximum Absorption Wavelength” value in data set [2] is 454 nm. Moreover, the Solubility entry in data set [3] was “A”.

`COC(=O)n1c(/N=N/c2c(C(C)(C)C)nn(C)c2N)nc(C#N)c1C#N` [(5)]: the Lightfastness result in data set [1] is reported as “A (A (from 80% to less than 100%))”. Also, the “Maximum Absorption Wavelength” value in data set [2] stood at 451 nm. Further, the Solubility entry in data set [3] is recorded as “A”.

Regarding `CC(C)(C)c1nn(-c2ccccc2)c(N)c1/N=N/c1ccc([N+](=O)[O-])cc1` [Comparative Dye 1, reference compound], the Lightfastness result in data set [1] is reported as “B (B (from 60% to less than 80%))”. Further, the Solubility entry in data set [3] is “B”.

`CCN(CC)C(=O)n1c(/N=N/c2ccc(N(CC)CC)cc2NC(C)=O)nc(C#N)c1C#N` [Comparative Dye 2, reference compound]: the Lightfastness result in data set [1] is “B (B (from 60% to less than 80%))”. Moreover, the Solubility result in data set [3] is reported as “A”.

With `Cn1nc(C(C)(C)C)c(/N=N/c2nc(C#N)c(C#N)[nH]2)c1N` [Comparative Dye 3, reference compound], the Lightfastness entry in data set [1] is reported as “C (C (less than 60%))”. In data set [2], this compound yielded a λmax of 432 nm. In addition, the Solubility result in data set [3] was “B”.

On to `CCN(CCOc1ccc(C2CCCCC2)cc1)c1ccc(C=C(C#N)C#N)c(C)c1` [Comparative Dye 4, reference compound], for which the Lightfastness entry in data set [1] is given as “C (C (less than 60%))”. In data set [3], the Solubility entry is “A”.

Take `CCCCN(CCCC)C(=O)c1ccc2c(c1)C(=O)C(c1nc3ccc(C(C)C)cc3cc1O)C2=O` (stereo not drawn) [Comparative Dye 5, reference compound]: the Lightfastness entry in data set [1] is recorded as “A (A (from 80% to less than 100%))”. In data set [3], the Solubility entry was “B”.

As to `CCN(CC)C(=O)n1c(/N=N/c2c(C(C)(C)C)nn(C)c2N)nc(C#N)c1C#N` [Compound (1)], the Lightfastness entry in data set [1] was “A (A (from 80% to less than 100%))”. Moreover, in data set [2], the “Maximum Absorption Wavelength” value stood at 438 nm and the λmax was 438 nm. In data set [3], the Solubility result was “A”.
